Experimental data: US20060069132A1, “Azolecarboxamide herbicides” (priority 2004, published 2006)
Where two headings read alike, the source gives them in different places.

Experiments:
[1] = system: giant foxtail; experiment: Test C pre-/postemergence herbicide test; assay type: in vivo, Setaria faberi; conditions: Setaria faberi, pre-emergence, 312 h, read-out: Plant response rating, Foxtail, Giant; for pest or weed control at 62 g/ha: 62 g ai/ha, preemergence, scale 0 to 100; for pest or weed control at 125 g/ha: 125 g ai/ha, scale 0 (no effect) to 100 (complete control); for pest or weed control at 125 g/ha / pest or weed control at 500 g/ha: visual, 12 to 14 days; for pest or weed control at 250 g/ha: 250 g ai/ha, scale 0-100; for pest or weed control at 500 g/ha: 500 g ai/ha, scale 0 to 100 (0 no effect, 100 complete control)
Method in brief: (§1)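 Greenhouse-grown plants were evaluated visually 12 to 14 days after treatment, with 100 meaning complete control and 0 no effect. Application was preemergence, or postemergence at 2 to 18 cm.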

[2] = system: morningglory; experiment: Test C pre-/postemergence herbicide test; assay type: in vivo, Ipomoea coccinea; conditions: Ipomoea, pre-emergence, read-out: Plant response rating, Morningglory; for pest or weed control at 62 g/ha: 62 g ai/ha, preemergence, scale 0 to 100; for pest or weed control at 125 g/ha: 125 g ai/ha, scale 0 (no effect) to 100 (complete control); for pest or weed control at 125 g/ha / pest or weed control at 500 g/ha: visual, 12 to 14 days; for pest or weed control at 250 g/ha: 250 g ai/ha, scale 0-100; for pest or weed control at 500 g/ha: 500 g ai/ha, scale 0 to 100 (0 no effect, 100 complete control)
Method in brief: as §1

[3] = system: kochia; experiment: Test C pre-/postemergence herbicide test; assay type: in vivo, Kochia scoparia; conditions: Bassia scoparia, pre-emergence, read-out: Plant response rating, Kochia; for pest or weed control at 62 g/ha: 62 g ai/ha, preemergence, scale 0 to 100; for pest or weed control at 125 g/ha: 125 g ai/ha, scale 0 (no effect) to 100 (complete control); for pest or weed control at 125 g/ha / pest or weed control at 500 g/ha: visual, 12 to 14 days; for pest or weed control at 250 g/ha: 250 g ai/ha, scale 0-100; for pest or weed control at 500 g/ha: 500 g ai/ha, scale 0 to 100 (0 no effect, 100 complete control)
Method in brief: as §1

[4] = system: giant foxtail; experiment: Test A pre-/postemergence herbicide test; assay type: in vivo, Setaria faberi; conditions: Setaria faberi, 240 h; for pest or weed control at 500 g/ha: 500 g ai/ha; for pest or weed control at 2000 g/ha: 2000 g ai/ha
Method in brief: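 Plants are held in greenhouse about ten days after treatment, then compared with untreated controls and scored 0 (no effect) to 100 (complete control). Preemergence dosing is a directed soil spray on sown sandy loam; postemergence dosing is spray to runoff at 2–10 cm height.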

[5] = system: common ragweed; experiment: Test C pre-/postemergence herbicide test; assay type: in vivo, Ambrosia elatior; conditions: Ambrosia artemisiifolia, pre-emergence, read-out: Plant response rating, Ragweed; for pest or weed control at 62 g/ha: 62 g ai/ha, preemergence, scale 0 to 100; for pest or weed control at 250 g/ha: 250 g ai/ha, scale 0-100; for pest or weed control at 500 g/ha: 500 g ai/ha, scale 0 to 100 (0 no effect, 100 complete control), visual, 12 to 14 days
Method in brief: as §1

[6] = system: soybean; experiment: Test C pre-/postemergence herbicide test; assay type: in vivo, Glycine max; conditions: Glycine max, pre-emergence, read-out: Plant response rating, Soybean; for plant injury at 62 g/ha: 62 g ai/ha, preemergence, scale 0 to 100; for plant injury at 250 g/ha: 250 g ai/ha, scale 0-100; for plant injury at 500 g/ha: 500 g ai/ha, scale 0 to 100 (0 no effect, 100 complete control), visual, 12 to 14 days
Method in brief: as §1

[7] = system: large crabgrass; experiment: Test C pre-/postemergence herbicide test; assay type: in vivo, Digitaria sanguinalis; conditions: Digitaria sanguinalis, pre-emergence, 312 h, read-out: Plant response rating, Crabgrass, Large; for pest or weed control at 62 g/ha: 62 g ai/ha, preemergence, scale 0 to 100; for pest or weed control at 125 g/ha: 125 g ai/ha, scale 0 (no effect) to 100 (complete control); for pest or weed control at 125 g/ha / pest or weed control at 500 g/ha: visual, 12 to 14 days; for pest or weed control at 250 g/ha: 250 g ai/ha, scale 0-100; for pest or weed control at 500 g/ha: 500 g ai/ha, scale 0 to 100 (0 no effect, 100 complete control)
Method in brief: as §1

[8] = system: bermudagrass; experiment: Test C pre-/postemergence herbicide test; assay type: in vivo, Cynodon dactylon; conditions: Cynodon dactylon, pre-emergence, 312 h; for pest or weed control at 62 g/ha: 62 g ai/ha, preemergence; for pest or weed control at 62 g/ha / pest or weed control at 500 g/ha: scale 0 to 100, 0 no effect, 100 complete control; for pest or weed control at 62 g/ha / pest or weed control at 125 g/ha / pest or weed control at 250 g/ha: read-out: Plant response rating, Bermudagrass; for pest or weed control at 125 g/ha: 125 g ai/ha, scale 0 (no effect) to 100 (complete control), visual, 12 to 14 days; for pest or weed control at 250 g/ha: 250 g ai/ha, scale 0-100; for pest or weed control at 500 g/ha: Preemergence, 500 g ai/ha, read-out: Bermudagrass plant response rating
Method in brief: as §1

[9] = system: pigweed; experiment: Test C pre-/postemergence herbicide test; assay type: in vivo, Amaranthus retroflexus; conditions: Amaranthus retroflexus, pre-emergence, read-out: Plant response rating, Pigweed; for pest or weed control at 62 g/ha: 62 g ai/ha, preemergence, scale 0 to 100; for pest or weed control at 125 g/ha: 125 g ai/ha, scale 0 (no effect) to 100 (complete control); for pest or weed control at 125 g/ha / pest or weed control at 500 g/ha: visual, 12 to 14 days; for pest or weed control at 250 g/ha: 250 g ai/ha, scale 0-100; for pest or weed control at 500 g/ha: 500 g ai/ha, scale 0 to 100 (0 no effect, 100 complete control)
Method in brief: as §1

[10] = system: yellow nutsedge; experiment: Test C pre-/postemergence herbicide test; assay type: in vivo, Cyperus esculentus; conditions: Cyperus, pre-emergence, read-out: Plant response rating, Nutsedge, Yellow; for pest or weed control at 62 g/ha: 62 g ai/ha, preemergence, scale 0 to 100; for pest or weed control at 125 g/ha: 125 g ai/ha, scale 0 (no effect) to 100 (complete control); for pest or weed control at 125 g/ha / pest or weed control at 500 g/ha: visual, 12 to 14 days; for pest or weed control at 250 g/ha: 250 g ai/ha, scale 0-100; for pest or weed control at 500 g/ha: 500 g ai/ha, scale 0 to 100 (0 no effect, 100 complete control)
Method in brief: as §1

[11] = post-emergence, Postemergence, 0 to 100 scale, 0 no effect, 100 complete control, read-out: Foxtail, Giant plant response rating
[12] = post-emergence, Postemergence, 0 to 100 scale, 0 no effect, 100 complete control, read-out: Plant response rating, Foxtail, Giant
[13] = pre-emergence, Preemergence, visual rating, 0 to 100 scale (0 no effect, 100 complete control), read-out: Foxtail, Giant plant response rating
[14] = pre-emergence, preemergence, visual injury, 0 to 100 scale (0 no effect, 100 complete control), read-out: Foxtail, Giant plant response rating

Compound	pest or weed control at 62 g/ha [1] [%]	pest or weed control at 125 g/ha [1] [%]	pest or weed control at 250 g/ha [1] [%]	pest or weed control at 500 g/ha [1] [%]	pest or weed control at 62 g/ha [2] [%]	pest or weed control at 125 g/ha [2] [%]	pest or weed control at 250 g/ha [2] [%]	pest or weed control at 500 g/ha [2] [%]	pest or weed control at 62 g/ha [3] [%]	pest or weed control at 125 g/ha [3] [%]	pest or weed control at 250 g/ha [3] [%]	pest or weed control at 500 g/ha [3] [%]	pest or weed control at 500 g/ha [4, 11] [%]	pest or weed control at 2000 g/ha [4, 12] [%]	pest or weed control at 2000 g/ha [4, 13] [%]	pest or weed control at 500 g/ha [4, 14] [%]	pest or weed control at 62 g/ha [5] [%]	pest or weed control at 250 g/ha [5] [%]	pest or weed control at 500 g/ha [5] [%]	plant injury at 62 g/ha [6] [%]	further results
CCc1nn(C(C)(C)C)cc1C(=O)Nc1cc(C(=O)N(C)C)ccc1F [Compound 222, N-[5-[(dimethylamino)carbonyl]-2-fluorophenyl]-1-(1,1-dimethylethyl)-3-ethyl-1H-pyrazole-4-carboxamide]	20	85	95	100	0	20	30	100	90	100	100	100	65	85	100	95	80	100	100	40	plant injury at 250 g/ha [6]: 100%; plant injury at 500 g/ha [6]: 100%; pest or weed control at 62 g/ha [7]: 100%; pest or weed control at 125 g/ha [7]: 100%; pest or weed control at 250 g/ha [7]: 100%; pest or weed control at 500 g/ha [7]: 100%; pest or weed control at 62 g/ha [8]: 85%; pest or weed control at 125 g/ha [8]: 100%; pest or weed control at 250 g/ha [8]: 100%; pest or weed control at 500 g/ha [8]: 100%; pest or weed control at 62 g/ha [9]: 100%; pest or weed control at 125 g/ha [9]: 100%; pest or weed control at 250 g/ha [9]: 100%; pest or weed control at 500 g/ha [9]: 100%; pest or weed control at 62 g/ha [10]: 0%; pest or weed control at 125 g/ha [10]: 0%; pest or weed control at 250 g/ha [10]: 20%; pest or weed control at 500 g/ha [10]: 60%
CCN1N=C(C(C)(C)C)CC1C(=O)Nc1cc(C(=O)N(C)C)ccc1F (stereo not shown) [Compound 268, N-[5-[(dimethylamino)carbonyl]-2-fluorophenyl]-3-(1,1-dimethylethyl)-1-ethyl-4,5-dihydro-1H-pyrazole-5-carboxamide]	80	95	95	100	0	0	5	5	100	100	100	100	55	80	100	100	70	100	100	60	plant injury at 250 g/ha [6]: 90%; plant injury at 500 g/ha [6]: 95%; pest or weed control at 62 g/ha [7]: 90%; pest or weed control at 125 g/ha [7]: 95%; pest or weed control at 250 g/ha [7]: 100%; pest or weed control at 500 g/ha [7]: 100%; pest or weed control at 62 g/ha [8]: 100%; pest or weed control at 125 g/ha [8]: 100%; pest or weed control at 250 g/ha [8]: 100%; pest or weed control at 500 g/ha [8]: 100%; pest or weed control at 62 g/ha [9]: 100%; pest or weed control at 125 g/ha [9]: 100%; pest or weed control at 250 g/ha [9]: 100%; pest or weed control at 500 g/ha [9]: 100%; pest or weed control at 62 g/ha [10]: 30%; pest or weed control at 125 g/ha [10]: 50%; pest or weed control at 250 g/ha [10]: 60%; pest or weed control at 500 g/ha [10]: 70%
